The CheMixHub viscosity set

Assay: xn = mol fraction of the nth substance listed

Brc1ccccc1 + COCCO
303.15 K, 101.33 kPa
Details | viscosity [mPa·s]
x2 = 0.1188 | 0.997
x2 = 0.219 | 1.024
x2 = 0.3173 | 1.06
x2 = 0.4336 | 1.114
x2 = 0.4974 | 1.147
x2 = 0.5621 | 1.179
x2 = 0.7198 | 1.255
x2 = 0.8018 | 1.296
x2 = 0.9254 | 1.352

Nc1cccc(Cl)c1Cl + COCCO
313.15 K, 101 kPa
Details | viscosity [mPa·s]
x1 = 0.08697 | 1.48
x1 = 0.1819 | 1.74
x1 = 0.2858 | 2.04
x1 = 0.4001 | 2.33
x1 = 0.5264 | 2.63
x1 = 0.6667 | 2.96
x1 = 0.8236 | 3.25

Brc1ccccc1 + COc1ccccc1
viscosity [mPa·s], 101 kPa
Details | x2 = 0.0996 | x2 = 0.1949 | x2 = 0.2927 | x2 = 0.3925 | x2 = 0.4935 | x2 = 0.5913 | x2 = 0.6919 | x2 = 0.7952 | x2 = 0.8992
298.15 K | 1.084 | 1.079 | 1.072 | 1.059 | 1.052 | 1.042 | 1.032 | 1.024 | 1.013
303.15 K | 1.017 | 1.011 | 1.005 | 0.9905 | 0.9826 | 0.9704 | 0.9621 | 0.952 | 0.9439
308.15 K | 0.957 | 0.9479 | 0.9392 | 0.9236 | 0.9158 | 0.9055 | 0.8959 | 0.8857 | 0.8768
313.15 K | 0.8974 | 0.8903 | 0.8784 | 0.8659 | 0.8558 | 0.8442 | 0.8346 | 0.8247 | 0.8135

FB(F)F + COc1ccccc1
viscosity [mPa·s], 101 kPa
Details | 293.15 K | 298.15 K | 303.15 K
x1 = 0.00791 | 1.08 | 1 | 0.93
x1 = 0.08794 | 1.18 | 1.08 | 0.99
x1 = 0.1573 | 1.27 | 1.16 | 1.06
x1 = 0.2443 | 1.62 | 1.46 | 1.35
x1 = 0.3211 | 2.23 | 2.02 | 1.81
x1 = 0.3634 | 2.66 | 2.39 | 2.13
x1 = 0.3926 | 3.04 | 2.69 | 2.4
x1 = 0.419 | 3.46 | 3.04 | 2.67
x1 = 0.4457 | 3.95 | 3.45 | 3.04
x1 = 0.4544 | 4.19 | 3.62 | 3.15
x1 = 0.4895 | 4.98 | 4.31 | 3.73

COc1ccccc1O + CS(C)=O
viscosity [mPa·s], 101 kPa
Details | x2 = 0.2 | x2 = 0.3 | x2 = 0.4 | x2 = 0.5 | x2 = 0.6 | x2 = 0.7 | x2 = 0.8 | x2 = 0.9
298.15 K | 10.62 | 12.4 | 11.9 | 9.46 | 6.91 | 4.97 | 3.59 | 2.66
308.15 K | 6.47 | 7.54 | 7.38 | 6.23 | 4.81 | 3.67 | 2.83 | 2.12
318.15 K | 4.35 | 5.01 | 4.98 | 4.4 | 3.59 | 2.8 | 2.2 | 1.75

O=C[C@H](O)[C@@H](O)[C@H](O)CO + C[N+](C)(C)CCO.[Cl-]
viscosity [mPa·s]
Details | x2 = 0.5 | x2 = 0.6 | x2 = 0.667
303 K, 101 kPa | 34000 | – | –
313 K, 101 kPa | 11900 | – | –
313.2 K, 100 kPa | 855.5 | 1450 | 3450
318.2 K, 100 kPa | 565.8 | 886.5 | 1886
323 K, 101 kPa | 4740 | – | –

CC(C)[N+](=O)[O-] + Cc1cc(C)cc(C)c1
293.15 K, 101.33 kPa
Details | viscosity [mPa·s]
x1 = 0.0955 | 0.691
x1 = 0.1983 | 0.691
x1 = 0.2294 | 0.69
x1 = 0.4005 | 0.691
x1 = 0.5048 | 0.696
x1 = 0.6007 | 0.701
x1 = 0.7022 | 0.708
x1 = 0.8014 | 0.717
x1 = 0.898 | 0.738

Brc1ccccc1 + Cc1ccc(C)cc1
101 kPa
Details | viscosity [mPa·s]
293.15 K, x1 = 0.1123 | 0.645
293.15 K, x1 = 0.225 | 0.695
293.15 K, x1 = 0.3321 | 0.746
293.15 K, x1 = 0.4327 | 0.795
293.15 K, x1 = 0.5301 | 0.845
293.15 K, x1 = 0.6412 | 0.897
293.15 K, x1 = 0.7553 | 0.95
293.15 K, x1 = 0.9107 | 1.018
298.15 K, x1 = 0.1121 | 0.61
298.15 K, x1 = 0.2263 | 0.658
298.15 K, x1 = 0.3316 | 0.701
298.15 K, x1 = 0.4646 | 0.758
298.15 K, x1 = 0.5298 | 0.785
298.15 K, x1 = 0.6418 | 0.835
298.15 K, x1 = 0.755 | 0.895
298.15 K, x1 = 0.9101 | 0.955
303.15 K, x1 = 0.1154 | 0.575
303.15 K, x1 = 0.22 | 0.615
303.15 K, x1 = 0.3355 | 0.657
303.15 K, x1 = 0.4366 | 0.7
303.15 K, x1 = 0.5593 | 0.75
303.15 K, x1 = 0.6816 | 0.799
303.15 K, x1 = 0.7723 | 0.835
303.15 K, x1 = 0.9149 | 0.891
